Results: publication PMC7917821, “In Vitro and In Silico Studies of Soluble Epoxide Hydrolase Inhibitors from the Roots of Lycopus lucidus” (Plants, 2021)
Read-outs that look alike come from different tables or passages of the source.

Legend:
sEH [1] = biological target: T1, sEH (Homo sapiens, UniProt P34913); assay: sEH inhibitory activity assay (fluorometric, PHOME substrate); type: biochemical; settings: for IC50: PHOME substrate, triplicate, mean ± SD; for inhibition at 100 µM: read-out: sEH inhibitory activity
T1 construct: purchased Cayman 10011669
T1 sequence (P34913 1-555): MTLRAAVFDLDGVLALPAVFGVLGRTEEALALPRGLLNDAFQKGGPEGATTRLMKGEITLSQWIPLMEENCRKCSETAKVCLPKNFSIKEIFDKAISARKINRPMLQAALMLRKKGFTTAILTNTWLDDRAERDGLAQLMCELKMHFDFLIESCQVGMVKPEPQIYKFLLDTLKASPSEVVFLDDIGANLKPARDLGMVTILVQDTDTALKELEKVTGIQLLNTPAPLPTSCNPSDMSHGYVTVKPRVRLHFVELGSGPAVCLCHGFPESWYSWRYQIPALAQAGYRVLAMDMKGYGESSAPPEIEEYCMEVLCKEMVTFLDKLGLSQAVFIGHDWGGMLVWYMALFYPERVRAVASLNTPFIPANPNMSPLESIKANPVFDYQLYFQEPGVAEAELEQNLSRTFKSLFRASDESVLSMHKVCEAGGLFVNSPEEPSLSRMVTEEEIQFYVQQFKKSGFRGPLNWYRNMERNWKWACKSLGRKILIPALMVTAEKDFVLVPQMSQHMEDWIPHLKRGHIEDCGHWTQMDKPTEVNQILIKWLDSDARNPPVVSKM
Method: The tests were conducted using a multi plate system of the fluorometric photometer at excitation and emission wavelengths of 330 and 465 nm, respectively. […] To identify potential inhibitors of sEH, all compounds were measured at 100 µM concentration.
(§1) The inhibitory activities on the sEH were measured according to the modified methods in previous papers. PHOME was used as a substrate to examine the inhibitions of sEH, which was determined using a hydrolysis reaction of PHOME. sEH was diluted in Bis Tris–HCl buffer (25 mM containing 0.1 mg/mL BSA, pH 7.0) at 12.15 ng/mL. In a 96-well plate, 130 μL of recombinant human sEH, 20 μL of sample, and 50 μL of 40 mM PHOME were added. The absorbance was measured at excitation filter 330 nm and emission filter 465 nm for 30 min at an interval of 30 s after adding the last solution in a 96-well plate. All assays were performed in triplicate, using microplate reader (Tecan infinite F200, Grödig, Austria). Inhibitory activity (%) was calculated using the following equation:(1) Inhibitory Activity (%)=100−[Δsample / Δcontrol]×100 where Δcontrol and Δsample are the changed fluorescence […], respectively.
The enzyme inhibition parameter IC50 was calculated by fitting hyperbola equations to the data using nonlinear regression of the plot using Sigma Plot (SPP Inc., Chicago, IL, USA.). The experimental results were performed in triplicate, and presented as the means ± SD.

sEH [2] = biological target: T1, sEH; parameters: method as in PMID 26548595, PMID 32972033, doi:10.1039/C6RA04207D; settings: earlier reports; cited from earlier work
sEH [3] = biological target: T1, sEH; assay: Enzyme kinetics on sEH (Lineweaver–Burk and Dixon plots); type: biochemical; settings: for Ki: Dixon plot; for sEH inhibition Type: Lineweaver–Burk plots, various substrate concentrations
Method: The enzymatic kinetics of these compounds (7–10) were determined by calculating the initial velocity of each inhibitor at various substrate concentrations (0.19–5 mM) (Figure 2). […] This mixed type had bound to allosteric sites, a site different from the active site. In addition, the inhibitory constant values (Ki) were calculated using the Dixon plot revised from the Lineweaver–Burk plot.
as §1

SMILES | IC50 (sEH [1]) [µM] | inhibition at 100 µM (sEH [1]) [%] | sEH inhibitory activity previously shown (sEH [2]) | Ki (sEH [3]) [µM] | sEH inhibition Type (sEH [3]) | inhibition at 100 µM (sEH [1]; at 100 µM concentration) [%]
C=C(C)[C@@H]1CC[C@]2(C(=O)O)CC[C@]3(C)[C@H](CC[C@@H]4[C@@]5(C)CC[C@H](O)C(C)(C)[C@@H]5CC[C@]43C)[C@@H]12 [Compound 1, betulinic acid] | 67.8 ± 3.2 | > 50 | significant sEH inhibitory activity | – | – | –
COC(=O)[C@@H](Cc1ccc(O)c(O)c1)OC(=O)/C=C/c1ccc(O)c2c1[C@H](C(=O)OC)[C@@H](c1ccc(O)c(O)c1)O2 [Compound 9, dimethyl lithospermate] | 10.6 ± 3.2 | – | – | 1.9 | competitive inhibitors | > 50
COc1ccc(CCO[C@@H]2O[C@H](CO)[C@@H](OC(=O)/C=C/c3ccc(O)c(OC)c3)[C@H](O[C@@H]3O[C@@H](C)[C@H](O)[C@@H](O)[C@H]3O)[C@H]2O)cc1O [Compound 8, martynoside] | 19.5 ± 4.1 | – | significant sEH inhibitory activity | 5.7 | mixed type inhibitor | > 50
COC(=O)[C@@H](Cc1ccc(O)c(O)c1)OC(=O)/C=C/c1ccc(O)c(O)c1 [Compound 7, methyl rosmarinate] | 16.8 ± 0.6 | – | – | 9.2 | competitive inhibitors | > 50
COC(=O)[C@H](O)Cc1ccc(O)cc1 [Compound 6, latifolicinin C] | 52 ± 1.9 | – | – | – | – | > 50
COC(=O)[C@H]1c2c(/C=C/C(=O)O[C@H](Cc3ccc(O)c(O)c3)C(=O)O)ccc(O)c2O[C@@H]1c1ccc(O)c(O)c1 [Compound 10, 9″″-methyl lithospermate] | 35.7 ± 2.1 | – | – | 7.6 | competitive inhibitors | > 50
C[C@H]1[C@H](C)CC[C@]2(C(=O)O)CC[C@]3(C)C(=CC[C@@H]4[C@@]5(C)CC[C@H](O)C(C)(C)[C@@H]5CC[C@]43C)[C@H]12 [Compound 3, ursolic acid] | 42.1 ± 4 | – | significant sEH inhibitory activity | – | – | > 50
